In brackets after ≈: the same amount, converted by molar mass.
System: Mycobacterium tuberculosis
Experiment: Antitubercular activity against Mycobacterium bovis BCG
Format: functional
Conditions: variant bovis BCG

CC(C)CCOc1ccc(NC(=S)Nc2ccc(OCCC(C)C)cc2)cc1 [TIOCARLIDE]
MIC: 0.5 µg/mL (≈ 1.25 µM)

Reference: ChEMBL document CHEMBL1149790, “Synthesis of some novel thiourea derivatives obtained from 5-[(4-aminophenoxy)methyl]-4-alkyl/aryl-2,4-dihydro-3H-1,2,4-triazole-3-thiones and evaluation as antiviral/anti-HIV and anti-tuberculosis agents” (Eur J Med Chem, 2008)
